Experimental data reported in the supplement of paper PMC8671470.

Experiments:
Conditions in all cases: 72 h
MOLM-13 = test system: MOLM-13
Procedure, shortened: (§1)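 Fifteen myeloid leukaemia cell lines were seeded in RPMI 1640 at densities titrated to the linear growth range and placed in 384-well plates with acoustically pre-printed compounds at five tenfold doses from 1 to 10,000 nM, in duplicate. After 72 h at 37 °C with 5% CO2, luminescent ATP viability was normalised to vehicle and to a positive control at 10 µM, and curves were fitted with a four-parameter log-logistic model. The IC50 was obtained from these fits.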

BV-173 = test system: BV-173
Procedure, shortened: as §1

HEL = test system: HEL
Procedure, shortened: as §1

SHI-1 = test system: SHI-1
Procedure, shortened: as §1

MV4-11 = test system: MV4-11
Procedure, shortened: as §1

THP-1 = test system: THP-1
Procedure, shortened: as §1

Mono-Mac-6 = test system: Mono-Mac-6
Procedure, shortened: as §1

K-562 = test system: K-562
Procedure, shortened: as §1

LAMA-84 = test system: LAMA-84
Procedure, shortened: as §1

KU-812 = test system: KU-812
Procedure, shortened: as §1

[1] = test system: myeloid leukemia patient primary cells Pat.2; assay: cell viability (% survival relative to DMSO control); higher = less cytotoxic
Procedure, shortened: (§2)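 Seventy compounds were pre-printed on 384-well plates at five tenfold concentrations between 1 and 10,000 nM, in duplicate. Thawed mononuclear cells purified by Ficoll from AML or CML patients were added at 10,000 cells/well in RPMI 1640 with 10% FBS for 72 h. Viability by CellTiter-Glo was normalised to DMSO and 10 μM proteasome-inhibitor wells. Where stated, area under the curve was taken from log-logistic fits made with the drc and PharmacoGx R packages, each fit having four parameters.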

[2] = test system: myeloid leukemia patient primary cells Pat.3; assay: as above
Procedure, shortened: as §2

[3] = test system: myeloid leukemia patient primary cells Pat.12; assay: as above
Procedure, shortened: as §2

[4] = test system: myeloid leukemia patient primary cells Pat.8; assay: as above
Procedure, shortened: as §2

[5] = test system: myeloid leukemia patient primary cells Pat.10; assay: as above
Procedure, shortened: as §2

[6] = test system: myeloid leukemia patient primary cells Pat.1; assay: as above
Procedure, shortened: as §2

[7] = test system: myeloid leukemia patient primary cells Pat.9; assay: as above
Procedure, shortened: as §2

[8] = test system: myeloid leukemia patient primary cells Pat.14; assay: as above
Procedure, shortened: as §2

[9] = test system: myeloid leukemia patient primary cells Pat.11; assay: as above
Procedure, shortened: as §2

[10] = test system: myeloid leukemia patient primary cells Pat.5; assay: as above
Procedure, shortened: as §2

[11] = test system: myeloid leukemia patient primary cells Pat.6; assay: as above
Procedure, shortened: as §2

[12] = test system: myeloid leukemia patient primary cells Pat.15; assay: as above
Procedure, shortened: as §2

[13] = test system: myeloid leukemia patient primary cells Pat.13; assay: as above
Procedure, shortened: as §2

[14] = test system: myeloid leukemia patient primary cells Pat.4; assay: as above
Procedure, shortened: as §2

[15] = test system: myeloid leukemia patient primary cells Pat.7; assay: as above
Procedure, shortened: as §2

HL-60 = assay: area under dose-response curve (viability, 1 nM-10 uM) (fraction (0-1)); higher = more sensitive
Procedure, shortened: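 Four-parameter log-logistic fits in drc and PharmacoGx supplied area under the curve where it is given. Underlying viability came from CellTiter-Glo, normalised to DMSO and proteasome-inhibitor wells, with the proteasome inhibitor at 10 μM. HL-60 cells in RPMI 1640 plus 10% FBS had been rescreened against the full library at five tenfold concentrations of 1–10,000 nM, in duplicate on 384-well plates, with DMSO or 100 nM of one of three metabolic inhibitors, for 72 h at 37 °C, 5% CO2.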

CO[C@H]1C[C@@H]2CC[C@@H](C)[C@@](O)(O2)C(=O)C(=O)N2CCCC[C@H]2C(=O)O[C@H]([C@H](C)C[C@@H]2CC[C@@H](OCCO)[C@H](OC)C2)CC(=O)[C@H](C)/C=C(\C)[C@@H](O)[C@@H](OC)C(=O)[C@H](C)C[C@H](C)/C=C/C=C/C=C/1C [Everolimus]
Conditions | IC50 (cell viability) [nM]
BV-173 | 4.11
HEL | 2.74
K-562 | 3.42
KU-812 | < 1
LAMA-84 | 782
MOLM-13 | < 1
MV4-11 | 248
Mono-Mac-6 | 1.04
SHI-1 | 1.15
THP-1 | 1.65

Conditions | area under dose-response curve, co-treatment: AZD3965 100 nM | area under dose-response curve, co-treatment: DMSO vehicle | area under dose-response curve, co-treatment: GSK2194069 100 nM | area under dose-response curve, co-treatment: pictilisib 100 nM | cell viability, 1 nM [%] | cell viability, 10 nM [%] | cell viability, 100 nM [%] | cell viability, 1000 nM [%] | cell viability, 10000 nM [%]
HL-60 | < 0.0301 | < 0.0301 | < 0.0301 | < 0.0301 | – | – | – | – | –
[1] | – | – | – | – | 82.6 | 83.8 | 74.4 | 82.3 | 68.2
[2] | – | – | – | – | 78.6 | 5.05 | 94.1 | 42.3 | 7.24
[3] | – | – | – | – | 96.2 | > 100 | > 100 | 93.7 | 99
[4] | – | – | – | – | 67.6 | 68.8 | 56.4 | 80.7 | 66.5
[5] | – | – | – | – | 34.9 | 31.3 | 34.9 | 41.7 | 11.8
[6] | – | – | – | – | 88.6 | 56.4 | 74 | 60.2 | 41.2
[7] | – | – | – | – | 64.2 | 22.3 | 87.7 | 15.7 | 0.492
[8] | – | – | – | – | 90.7 | 53.5 | 96.7 | 59.3 | 17.4
[9] | – | – | – | – | 90.6 | 83.8 | 89.2 | 87.3 | 70.2
[10] | – | – | – | – | 49.5 | 20.5 | 23 | 9.25 | 0.912
[11] | – | – | – | – | 96.2 | 92.4 | 99.1 | 87.4 | 53.5
[12] | – | – | – | – | 62.3 | 44.6 | 36.8 | 40 | 22.9
[13] | – | – | – | – | 82.2 | 82.6 | 74.8 | 79.3 | 43.1
[14] | – | – | – | – | 64.8 | 57.9 | 47 | 47.3 | 41.9
[15] | – | – | – | – | 85 | 68.8 | 99.3 | 79.1 | 2.34

CN(Cc1cnc2nc(N)nc(N)c2n1)c1ccc(C(=O)N[C@@H](CCC(=O)O)C(=O)O)cc1 [Methotrexate]
Conditions | IC50 (cell viability) [nM]
BV-173 | 32.3
HEL | 3.7
K-562 | 33
KU-812 | 15.7
LAMA-84 | 4.72
MOLM-13 | 7.57
MV4-11 | 8.96
Mono-Mac-6 | 8.26
SHI-1 | 80.8
THP-1 | 31.9

Conditions | area under dose-response curve, co-treatment: AZD3965 100 nM | area under dose-response curve, co-treatment: DMSO vehicle | area under dose-response curve, co-treatment: GSK2194069 100 nM | area under dose-response curve, co-treatment: pictilisib 100 nM | cell viability, 1 nM [%] | cell viability, 10 nM [%] | cell viability, 100 nM [%] | cell viability, 1000 nM [%] | cell viability, 10000 nM [%]
HL-60 | 0.618 | 0.523 | 0.515 | 0.544 | – | – | – | – | –
[1] | – | – | – | – | 98.8 | 96.8 | 98.1 | 75.3 | 63.1
[2] | – | – | – | – | 46 | 95 | 40 | 10.9 | 5.65
[3] | – | – | – | – | > 100 | 98.1 | 97.4 | 87 | 97.3
[4] | – | – | – | – | 76.5 | 89.1 | 96.3 | 70.3 | 86.1
[5] | – | – | – | – | 68.8 | 42.2 | 80.2 | 23 | 15.2
[6] | – | – | – | – | 99.6 | > 100 | 87.7 | 72.5 | 92.6
[7] | – | – | – | – | 51.4 | 92.2 | 25.9 | 6.38 | 0.492
[8] | – | – | – | – | 89 | 94.6 | 87.8 | 22.5 | 35.6
[9] | – | – | – | – | 96.2 | 98.4 | 97.3 | 81.7 | 95.5
[10] | – | – | – | – | 98.7 | 50.1 | 57.6 | < 0 | 46.4
[11] | – | – | – | – | 99.7 | 95.8 | 97.1 | 67.7 | 92
[12] | – | – | – | – | 95.4 | 89.3 | > 100 | 80.5 | 91.1
[13] | – | – | – | – | 96.4 | 88.3 | 82.7 | 58.2 | 88.5
[14] | – | – | – | – | 88 | 87.6 | 70.2 | 73.6 | 95.8
[15] | – | – | – | – | 94.1 | 89.1 | 56.6 | 15.2 | 34.5

C[C@]12C=CC(=O)C=C1CC[C@@H]1[C@@H]2[C@@H](O)C[C@@]2(C)[C@H]1CC[C@]2(O)C(=O)CO [Prednisolone]
Conditions | IC50 (cell viability) [nM]
BV-173 | 52.5
HEL | > 10000
K-562 | > 10000
KU-812 | > 10000
LAMA-84 | > 10000
MOLM-13 | > 10000
MV4-11 | > 10000
Mono-Mac-6 | > 10000
SHI-1 | > 10000
THP-1 | > 10000

Conditions | area under dose-response curve, co-treatment: AZD3965 100 nM | area under dose-response curve, co-treatment: DMSO vehicle | area under dose-response curve, co-treatment: GSK2194069 100 nM | area under dose-response curve, co-treatment: pictilisib 100 nM | cell viability, 1 nM [%] | cell viability, 10 nM [%] | cell viability, 100 nM [%] | cell viability, 1000 nM [%] | cell viability, 10000 nM [%]
HL-60 | < 0.0301 | < 0.0301 | < 0.0301 | < 0.0301 | – | – | – | – | –
[1] | – | – | – | – | 95.6 | 86.1 | 87.2 | 77.3 | 76.4
[2] | – | – | – | – | 95 | 71.2 | 73.9 | 46 | 35.2
[3] | – | – | – | – | 89 | 88.8 | 95.7 | 83.9 | 79
[4] | – | – | – | – | 86.3 | 70.1 | 87.3 | 59.3 | 47.6
[5] | – | – | – | – | 73.8 | 39.2 | 17.1 | 31.4 | 2.16
[6] | – | – | – | – | 83.7 | 69.7 | > 100 | > 100 | 97.2
[7] | – | – | – | – | 99.2 | 18.2 | 84.8 | > 100 | > 100
[8] | – | – | – | – | 85.8 | 46.4 | 80.9 | 94 | 68.3
[9] | – | – | – | – | 96.9 | 93.5 | 85 | 83 | 64.8
[10] | – | – | – | – | 40.8 | 10.3 | 21.7 | 72 | 20.7
[11] | – | – | – | – | > 100 | 75.7 | 89.4 | 78.5 | 66.2
[12] | – | – | – | – | 81.1 | 88.6 | 86.1 | 75.4 | 61.2
[13] | – | – | – | – | 93.4 | 82 | 92.6 | > 100 | > 100
[14] | – | – | – | – | 95.3 | 78.8 | 78.4 | 75.8 | 53.7
[15] | – | – | – | – | 66.5 | 60.7 | 84.5 | 83.6 | 83.4
